We go through 20 compounds from US20260256807A1, “SUBSTITUTED PYRAZOLES AND IMIDAZOLES AS OREXIN RECEPTOR ANTAGONISTS COMPOSITION, METHODS FOR TREATING NEUROLOGICAL AND PSYCHOLOGICAL DISORDERS” (HAGER BIOSCIENCES, LLC, priority 2022, published 2026).

For one assay, the target named is T1, human orexin-2 receptor (Homo sapiens, UniProt O43614).
T1 construct: expressed in transfected cells; host or cells: CHO cells (G418 selection)
T1 sequence (O43614 1-444): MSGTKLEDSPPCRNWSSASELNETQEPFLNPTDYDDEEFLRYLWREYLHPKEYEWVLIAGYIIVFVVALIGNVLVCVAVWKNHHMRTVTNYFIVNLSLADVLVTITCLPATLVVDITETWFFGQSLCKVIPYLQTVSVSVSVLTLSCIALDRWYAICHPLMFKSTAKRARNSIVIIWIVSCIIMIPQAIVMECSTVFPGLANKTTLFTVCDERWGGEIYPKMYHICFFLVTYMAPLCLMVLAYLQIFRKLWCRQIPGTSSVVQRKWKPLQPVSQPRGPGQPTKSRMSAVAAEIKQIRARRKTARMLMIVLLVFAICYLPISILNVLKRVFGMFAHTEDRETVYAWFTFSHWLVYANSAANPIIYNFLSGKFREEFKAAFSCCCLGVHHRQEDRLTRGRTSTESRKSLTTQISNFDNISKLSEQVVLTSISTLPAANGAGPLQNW
As to the kind of experiment: Intracellular calcium (FLIPR) antagonist assay, CHO cells expressing human orexin-2 receptor, 3 nM orexin-A. In kind it is cell-based. To be noted: CHO, 1 uM compound, orexin-A 3 nM, read-out: OX2R % Inh. @ 1uM. The procedure:
(§1) Antagonistic activities on both orexin receptors (i.e., to identify Orexin Receptor Antagonists) have been measured for each example compound using the in vitro assays (intracellular calcium measurements) as described herein. Other assays may also be used to identify Orexin Receptor Antagonists as would be understood by those of ordinary skill in the art. Chinese hamster ovary (CHO) cells expressing the human orexin-1 receptor and the human orexin-2 receptor, respectively, are grown in culture medium (Ham F-12 with L-Glutamine) containing 300 μg/mL G418, 100 U/mL penicillin, 100 μg/mL streptomycin and 10% heat inactivated fetal calf serum (FCS). The cells are seeded at 20′000 cells/well into 384-well black clear bottom sterile plates (Greiner). The seeded plates are incubated overnight at 37° C. in 5% CO2. Human orexin-A as an agonist is prepared as 1 mM stock solution in MeOH: water (1:1), diluted in HBSS containing 0.1% bovine serum albumin (BSA), NaHC03: 0.375 g/L and 20 mM HEPES for use in the assay at a final concentration of 3 nM.
(§2) Antagonists were prepared as 10 mM stock solution in DMSO, then diluted in 384-well plates using DMSO followed by a transfer of the dilutions into in HBSS containing 0.1% bovine serum albumin (BSA), NaHC03: 0.375 g/L and 20 mM HEPES. On the day of the assay, 50 μL of staining buffer (HBSS containing 1% FCS, 20 mM HEPES, NaHC03: 0.375 g/L, 5 mM probenecid (Sigma) and 3 μM of the fluorescent calcium indicator fluro-4 AM (1 mM stock solution in DMSO, containing 10% pluronic) is added to each well. The 384-well cell-plates are incubated for 50 min at 37° C. in 5% C02 followed by equilibration at RT for 30 min before measurement. Within the Fluorescent Imaging Plate Reader (FLIPR Tetra, Molecular Devices), potential Orexin Receptor Antagonists were added to the plate in a volume of 10 μl/well, incubated for 120 min and finally 10 μL/well of agonist is added. Fluorescence was measured for each well at 1 second intervals, and the height of each fluorescence peak compared to the height of the fluorescence peak induced by 3 nM orexin-A with vehicle in place of antagonist. The IC50 value (the concentration of compound needed to inhibit 50% of the agonistic response) was determined and normalized using the obtained IC50 value of an on-plate reference compound. Optimized conditions were achieved by adjustment of pipetting speed and cell splitting regime. The calculated IC50 values fluctuate depending on the daily cellular assay performance, as is known to those skilled in the art. In the case where IC50 values have been determined several times for the same compound, the geometric mean has been given.
For orientation: Calcium flux is commonly read through the fluorescence of an indicator in the cells.
Regarding `Cc1cc(C)nc(N2CC3CN(C(=O)c4c(-c5ccc(F)cc5)nc5ccccn45)CC3C2)n1` (stereo not shown) [Example 27], the inhibition at 1 µM turned out to be 14.2%.
For the compound `C[C@@H]1CCN(c2cnc(C(F)(F)F)cn2)CCN1C(=O)c1c(-c2ccccc2)nn2ccccc12` [Example 90], the inhibition at 1 µM was 80%.
On the same count and under the same terms, then `O=C(c1c(-c2ccccc2)nc2cc(F)ccn12)N1CC2CN(c3ccc(C(F)(F)F)cn3)CC2C1` (stereo not shown) [Example 36], with 23.6%; and `COc1ccc(N2CC[C@@H](C)N(C(=O)c3c(-c4ccccc4)nn4ccccc34)CC2)nc1` [Example 14], with 57.6%; and `Cc1cc(C)nc(N2CC[C@@H](C)N(C(=O)c3nn4cccnc4c3-c3ccccc3)CC2)n1` [Example 74], with 95%.
In the case of `COc1ccc(N2CC[C@@H](C)N(C(=O)c3c(-c4ccccc4)nn4ccccc34)CC2)nn1` [Example 13], the inhibition at 1 µM is 38.6%.
With `C[C@@H]1CCN(c2ccc(F)cn2)CCN1C(=O)c1c(-c2ccccc2)nc2ccccn12` [Example 23], the inhibition at 1 µM was found to be 32.7%.
The same measure, in the same setting: then `O=C(c1c(-c2ccccc2)nc2ccccn12)N1CCCN(c2nc3cc(Cl)ccc3o2)CC1` [Example 3], with 71.8%; and `Cc1cc(C)nc(N2CC[C@@H](C)N(C(=O)c3nn4cccnc4c3-c3ccccn3)CC2)n1` [Example 99], with 56%.
For `C[C@@H]1CCN(c2cnc(C(F)(F)F)cn2)CCN1C(=O)c1c(-c2ncccn2)nn2ccccc12` [Example 88], the inhibition at 1 µM amounted to 29%.
With `O=C(c1c(-c2ccccc2)nc2ccc(F)cn12)N1CC2CN(c3ccc(C(F)(F)F)cn3)CC2C1` (stereo not shown) [Example 35], the inhibition at 1 µM was 22.5%.
In the case of `COc1ccc(N2CC[C@@H](C)N(C(=O)c3c(-c4ccccn4)nn4ccccc34)CC2)nc1` [Example 81], the inhibition at 1 µM was determined as 47%.
On to `C[C@@H]1CCN(c2nc3cc(Cl)ccc3o2)CCN1C(=O)c1nc2ccccn2c1-c1ccccc1` [Example 56], for which the inhibition at 1 µM was determined as 27%.
The same measure, in the same setting: under `C[C@@H]1CCN(c2nc3cc(Cl)ccc3o2)CCN1C(=O)c1nn2c(c1-c1ccccc1)COCC2` [Example 57] stands 28%; under `Cc1cc(C)nc(N2CC3CN(C(=O)c4c(-c5ccc(F)cc5)nn5ccccc45)CC3C2)n1` (stereo not shown) [Example 30], 36.8%; under `C[C@@H]1CCN(c2nc3cc(Cl)ccc3o2)CCN1C(=O)c1c(-c2ccccn2)nn2ccccc12` [Example 63], 96%.
As to `Cc1cc(C)nc(N2CC3CN(C(=O)c4c(-c5ccccc5F)nc5ccccn45)CC3C2)n1` (stereo not shown) [Example 28], the inhibition at 1 µM worked out at 36.6%.
Regarding `C[C@@H]1CCN(c2ccc(C(F)(F)F)cn2)CCN1C(=O)c1c(-c2ccccc2F)nn2ccccc12` [Example 53], the inhibition at 1 µM was determined as 98.8%.
On the same count and under the same terms, then `C[C@@H]1CCN(c2cnc(C(F)(F)F)cn2)CCN1C(=O)c1c(-c2ccccc2)nn2c1COCC2` [Example 89], with 10%.
As for `C[C@@H]1CCN(c2nc3cc(Cl)ccc3o2)CCN1C(=O)c1nn2cccnc2c1-c1ccccn1` [Example 96], the inhibition at 1 µM stood at 71%.

Another assay addresses T2, human orexin-1 receptor (Homo sapiens, UniProt O43613).
T2 construct: expressed in transfected cells; host or cells: CHO cells (G418 selection)
T2 sequence (O43613 1-425): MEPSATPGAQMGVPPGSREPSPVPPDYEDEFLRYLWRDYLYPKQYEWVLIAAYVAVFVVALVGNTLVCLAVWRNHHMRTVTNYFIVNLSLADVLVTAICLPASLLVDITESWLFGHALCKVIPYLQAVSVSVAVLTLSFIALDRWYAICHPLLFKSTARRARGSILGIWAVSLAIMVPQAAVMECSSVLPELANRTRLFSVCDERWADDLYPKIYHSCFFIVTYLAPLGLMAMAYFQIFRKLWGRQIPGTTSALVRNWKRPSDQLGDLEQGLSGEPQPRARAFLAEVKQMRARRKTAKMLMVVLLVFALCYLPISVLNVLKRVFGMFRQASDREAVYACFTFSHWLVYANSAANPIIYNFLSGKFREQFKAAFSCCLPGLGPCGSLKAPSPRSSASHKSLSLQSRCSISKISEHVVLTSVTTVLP
Put plainly: Intracellular calcium (FLIPR) antagonist assay, CHO cells expressing human orexin-1 receptor, 3 nM orexin-A. The assay is classed as cell-based. As to conditions: 1 uM compound, orexin-A 3 nM. The method, then: as §1, §2
In the case of `COc1ccc(N2CC[C@@H](C)N(C(=O)c3c(-c4ccccn4)nn4ccccc34)CC2)nc1` [Example 81], the “OXIR % Inh. @ 1 uM” value is 76%.

Still in this assay, the particulars now being: CHO, 1 uM compound, orexin-A 3 nM, read-out: OXIR % Inh. @ 1 uM.
As for `Cc1cc(C)nc(N2CC3CN(C(=O)c4c(-c5ccc(F)cc5)nc5ccccn45)CC3C2)n1` (stereo not shown) [Example 27], the inhibition at 1 µM worked out at 6.42%.
`C[C@@H]1CCN(c2cnc(C(F)(F)F)cn2)CCN1C(=O)c1c(-c2ccccc2)nn2ccccc12` [Example 90]: the inhibition at 1 µM came to 95%.
As for `O=C(c1c(-c2ccccc2)nc2cc(F)ccn12)N1CC2CN(c3ccc(C(F)(F)F)cn3)CC2C1` (stereo not shown) [Example 36], the inhibition at 1 µM was 35%.
The same measure, in the same setting: then `COc1ccc(N2CC[C@@H](C)N(C(=O)c3c(-c4ccccc4)nn4ccccc34)CC2)nc1` [Example 14], with 91.6%; and `Cc1cc(C)nc(N2CC[C@@H](C)N(C(=O)c3nn4cccnc4c3-c3ccccc3)CC2)n1` [Example 74], with 74%; and `COc1ccc(N2CC[C@@H](C)N(C(=O)c3c(-c4ccccc4)nn4ccccc34)CC2)nn1` [Example 13], with 45.1%.
For `C[C@@H]1CCN(c2ccc(F)cn2)CCN1C(=O)c1c(-c2ccccc2)nc2ccccn12` [Example 23], the inhibition at 1 µM stood at 18.6%.
The same measure, in the same setting: under `O=C(c1c(-c2ccccc2)nc2ccccn12)N1CCCN(c2nc3cc(Cl)ccc3o2)CC1` [Example 3] stands 94%.
In the case of `Cc1cc(C)nc(N2CC[C@@H](C)N(C(=O)c3nn4cccnc4c3-c3ccccn3)CC2)n1` [Example 99], the inhibition at 1 µM came out at 45%.
On the same count and under the same terms, under `C[C@@H]1CCN(c2cnc(C(F)(F)F)cn2)CCN1C(=O)c1c(-c2ncccn2)nn2ccccc12` [Example 88] stands 51%; under `O=C(c1c(-c2ccccc2)nc2ccc(F)cn12)N1CC2CN(c3ccc(C(F)(F)F)cn3)CC2C1` (stereo not shown) [Example 35], 59.1%; under `C[C@@H]1CCN(c2nc3cc(Cl)ccc3o2)CCN1C(=O)c1nc2ccccn2c1-c1ccccc1` [Example 56], 97%.
Same read-out and setting: under `C[C@@H]1CCN(c2nc3cc(Cl)ccc3o2)CCN1C(=O)c1nn2c(c1-c1ccccc1)COCC2` [Example 57] stands 98%.
On the same count and under the same terms, under `Cc1cc(C)nc(N2CC3CN(C(=O)c4c(-c5ccc(F)cc5)nn5ccccc45)CC3C2)n1` (stereo not shown) [Example 30] stands 28.3%; under `C[C@@H]1CCN(c2nc3cc(Cl)ccc3o2)CCN1C(=O)c1c(-c2ccccn2)nn2ccccc12` [Example 63], 100%; under `Cc1cc(C)nc(N2CC3CN(C(=O)c4c(-c5ccccc5F)nc5ccccn45)CC3C2)n1` (stereo not shown) [Example 28], 18.3%.
Consider `C[C@@H]1CCN(c2ccc(C(F)(F)F)cn2)CCN1C(=O)c1c(-c2ccccc2F)nn2ccccc12` [Example 53], for which the inhibition at 1 µM is 102%.
The same measure, in the same setting: under `C[C@@H]1CCN(c2cnc(C(F)(F)F)cn2)CCN1C(=O)c1c(-c2ccccc2)nn2c1COCC2` [Example 89] stands 25%.
Regarding `C[C@@H]1CCN(c2nc3cc(Cl)ccc3o2)CCN1C(=O)c1nn2cccnc2c1-c1ccccn1` [Example 96], the inhibition at 1 µM stood at 100%.
